Test results published in patent publication US20130210034A1, “COMPLEX PHOSPHOPROTEIN ACTIVATION PROFILES” (BECKMAN COULTER, INC., priority 2005, published 2013).
“And” between values parts separate entries of the source, which are not always exact repeats. Identical values can stand only once.

Experiments:
Type in all cases: cell-based, human
pSTAT5 [1] = assay: Phosphoprotein kinetic profiles in bone marrow samples from healthy donors; details: CD34^+, CD117^+ cells, healthy donor samples
Procedure: (§1) Phosphoprotein kinetic profiles were analyzed in bone marrow aspiration samples from nine healthy, adult donors (i.e., normal bone marrow or NBM) and from five AML patients. Samples from healthy donors included 5 males and 4 females, ranging in age from 26 to 49 years. Approximately 10 to 20 mL of bone marrow (BM) samples were collected from the posterior iliac crest of the volunteers using IRB approved protocols. The BM samples were filtered using a 40 μm Nylon cell strainer to remove marrow particles and the white blood cell concentration determined using a blood analyzer. […] The samples were immediately used for subsequent experimentation.
(§2) To assess the signal transduction response after growth factor simulation, 100 to 200 μL of processed samples including about 2×10^6 WBC/100 μL were added to tubes and incubated at 37° C. for 30 minutes. For inhibition experiments, cells were incubated with 100 μM U0126, 1 μg/mL rapamycin, or both for at least 20 minutes prior to cytokine addition and in all cases for 30 min prior to formaldehyde addition. […] After stimulation the cells were immediately fixed by the addition of formaldehyde to a final concentration of 4% v/v and incubated for 10 minutes at room temperature. Following fixation, red blood cells were lysed by the addition of TRITON-X/PBS solution (0.1% v/v final concentration Triton X-100) supplemented with a 1 x phosphatase inhibitor cocktail (PIC; final concentrations: 0.2 mM sodium orthovanadate, 2 mM sodium pyrophosphate decahydrate, 2 mM [3-glycerophosphate, and 10 mM sodium fluoride) and incubation at 37° C. for 20 minutes. The incubated solution was chilled by the addition of ice-cold Wash Buffer (final concentration 1×PBS and either 4% bovine serum albumin (BSA) or 4% heat-inactivated fetal bovine serum (FBS), supplemented with 1×PIC), and the samples were centrifuged at 300 g for 6 minutes at 4° C.). If the lysis was incomplete, samples were retreated with 0.1% Triton X-100 at 37° C. for 10 to 20 minutes. After removal of the supernatant, cells were washed twice in ice-cold Wash Buffer supplemented with 1×PIC and permeabilized by the addition of pre-chilled 80% methanol while simultaneously vortexing the tube and incubated on ice for 10 minutes. Methanol was removed by centrifugation, the pellet was washed with ice-cold 1×PBS, and non-specific binding was blocked by the addition of ice-cold Wash Buffer supplemented with 1×PIC and incubation at 4° C. for a minimum of 30 minutes.
(§3) To stain cells with fluorescent conjugated monoclonal antibodies, the incubated solution was centrifuged to remove the supernatant and the pellet was incubated for 60 minutes at 4° C. with an antibody staining solution including 0.25 μg to 0.50 μg of pS6-Pacific Blue, pERK-ALEXA 488, pSTAT5-ALEXA 647, CD34-PE, CD45-PerCP, and CD117-PC7. Samples were washed three times with ice-cold Wash Buffer supplemented with 1×PIC, resuspended in 0.5 mL ice-cold Wash Buffer supplemented with 1×PIC including 0.5 μg/mL DAPI, and analyzed by flow cytometryusing a BD LSR II Flow Cytometer, equipped with a High Throughput Sampler (HTS).
(§4) First, doublets, aggregates, and debris were excluded by gating on single cell events in the SSC-Area versus SSC-Height histogram. Then, in events passing through this gate, debris near the origin of the FSC-Area versus SSC-Area plot (gray in FIG. 4A) was excluded by drawing a gate around an area encompassing, primarily, lymphocytes, monocytes, and granulocytes (LMG, black in FIG. 4A). Next, in cells passing through the LMG gate, the blast region (circle in FIG. 4B) was identified in the CD45 versus SSC-Area histogram (FIG. 4B). From this blast population, CD34+, CD117+ cells were identified in the CD34 versus CD117 plot (boxed area in FIG. 4C).

pERK [2] = assay: as above; details: for pERK Amp (peak amplitude of fold stimulation) / pERK RI (response interval): CD34^+, CD117^+ cells
Procedure: as §1, §2, §3, §4

pS6 [3] = assay: as above; details: for pS6 Amp (peak amplitude of fold stimulation) / pS6 RI (response interval): CD34^+, CD117^+ cells
Procedure: as §1, §2, §3, §4

pSTAT5 [4] = assay: Phosphoprotein kinetic profiles in CD34+, CD117+ cells of AML bone marrow samples
Procedure: as §2, §3
(§5) First, doublets, aggregates, and debris were excluded by gating on single cell events in the SSC-Area versus SSC-Height histogram. Then, in events passing through this gate, debris near the origin of the FSC-Area versus SSC-Area plot (gray in FIG. 4A) was excluded by drawing a gate around an area encompassing, primarily, lymphocytes, monocytes, and granulocytes (LMG, black in FIG. 4A). Next, in cells passing through the LMG gate, the blast region (circle in FIG. 4B) was identified in the CD45 versus SSC-Area histogram (FIG. 4B). From this blast population, CD34+, CD117+ cells were identified in the CD34 versus CD117 plot (boxed area in FIG. 4C). Finally, these cells were further analyzed for cytokine-mediated increases in phosphorylation by constructing gates in the single parameter histograms (for positively and negatively stained events, i.e., for the phosphorylated and non-phosphorylated forms, respectively, of each protein) for pS6 (FIGS. 4D and 4G), pERK (FIGS. 4E and 4H), and pSTAT5 (FIGS. 4F and 4I). […] The dotted lines in each of these histograms represent unstimulated cells at t=0 min. FCS files were processed with WinList 6.0 3D (Verity Software House).

pERK [5] = assay: as above; details: for pERK Amp (peak amplitude of fold stimulation) / pERK RI (response interval): CD34^+, CD117^+ cells; for Frequency, pERK: frequency of positive-stained cells; for Positives/Negatives, pERK: ratio of positive- to negative-stained cells; for pERK response, fold greater than in healthy donor samples: SCF: AML1 and AML2, FL: AML1
Procedure: as §2, §3, §5

pS6 [6] = assay: as above; details: for pS6 Amp (peak amplitude of fold stimulation) / pS6 RI (response interval): CD34^+, CD117^+ cells; for Frequency, pS6: frequency of positive-stained cells; for Positives/Negatives, pS6: ratio of positive- to negative-stained cells
Procedure: as §2, §3, §5

[7] = SCF-stimulated, healthy donor samples
[8] = SCF-stimulated, mean of healthy donors 6 to 9

Stem Cell Factor [SCF]
pSTAT5 Amp (peak amplitude of fold stimulation) (pSTAT5 [1]): 0.8 ± 0.2
pSTAT5 RI (response interval) (pSTAT5 [1]): Variable
pERK Amp (peak amplitude of fold stimulation) (pERK [2]; healthy donor samples): 120 and 120 ± 28
pERK RI (response interval) (pERK [2]; healthy donor samples): 8.7 min and 8.7 ± 0.3 min
frequency of positively stained cells at its maximum, pERK (pERK [2]; [7]): 81%
Fold Stimulation, pERK (pERK [2]; [8]): 53
Frequency, pERK (pERK [2]; [8]): 81
MFI, pERK (pERK [2]; [8]): 3700
Positives/Negatives, pERK (pERK [2]; [8]): 4.9
pS6 Amp (peak amplitude of fold stimulation) (pS6 [3]; healthy donor samples): 18 ± 5.1
pS6 RI (response interval) (pS6 [3]; healthy donor samples): 28 min and 28 ± 1.2 min
frequency of positively stained cells at its maximum, pS6 (pS6 [3]; [7]): 26%
Fold Stimulation, pS6 (pS6 [3]; [8]): 10
Frequency, pS6 (pS6 [3]; [8]): 26
MFI, pS6 (pS6 [3]; [8]): 1040
Positives/Negatives, pS6 (pS6 [3]; [8]): 0.44
pSTAT5 Amp (peak amplitude of fold stimulation) (pSTAT5 [4]; AML1 sample (Example 6)): 32
pSTAT5 Amp (peak amplitude of fold stimulation) (pSTAT5 [4]; AML2 sample (Example 6)): 2
pSTAT5 RI (response interval) (pSTAT5 [4]; AML2 sample (Example 6)): 6 min
pERK Amp (peak amplitude of fold stimulation) (pERK [5]; AML1 sample (Example 6)): 1600
pERK RI (response interval) (pERK [5]; AML1 sample (Example 6)): 30 min
pERK Amp (peak amplitude of fold stimulation) (pERK [5]; AML2 sample (Example 6)): 1300
pERK RI (response interval) (pERK [5]; AML2 sample (Example 6)): 20 min
Fold Stimulation, AML to NBM ratio (pERK)AML1/(pERK)D6-9 (pERK [5]; SCF-stimulated): 30
Fold Stimulation, AML to NBM ratio (pERK)AML2/(pERK)D6-9 (pERK [5]; SCF-stimulated): 25
Frequency, AML to NBM ratio (pERK)AML1/(pERK)D6-9 (pERK [5]; SCF-stimulated): 1.1
Frequency, AML to NBM ratio (pERK)AML2/(pERK)D6-9 (pERK [5]; SCF-stimulated): 1.1
MFI, AML to NBM ratio (pERK)AML1/(pERK)D6-9 (pERK [5]; SCF-stimulated): 0.41
MFI, AML to NBM ratio (pERK)AML2/(pERK)D6-9 (pERK [5]; SCF-stimulated): 0.35
Positives/Negatives, AML to NBM ratio (pERK)AML1/(pERK)D6-9 (pERK [5]; SCF-stimulated): 2.0
Positives/Negatives, AML to NBM ratio (pERK)AML2/(pERK)D6-9 (pERK [5]; SCF-stimulated): 1.5
Fold Stimulation, pERK (pERK [5]; SCF-stimulated, AML1): 1600
MFI, pERK (pERK [5]; SCF-stimulated, AML1): 1500
Frequency, pERK (pERK [5]; SCF-stimulated, AML1): 88
Positives/Negatives, pERK (pERK [5]; SCF-stimulated, AML1): 10
Fold Stimulation, pERK (pERK [5]; SCF-stimulated, AML2): 1300
MFI, pERK (pERK [5]; SCF-stimulated, AML2): 1300
Frequency, pERK (pERK [5]; SCF-stimulated, AML2): 90
Positives/Negatives, pERK (pERK [5]; SCF-stimulated, AML2): 7.4
frequency of positively stained cells at its maximum, pERK (pERK [5]; SCF-stimulated, AML samples): approximately 90%
pERK response, fold greater than in healthy donor samples (pERK [5]): approximately 10 fold
pS6 Amp (peak amplitude of fold stimulation) (pS6 [6]; AML1 sample (Example 6)): 1100
pS6 RI (response interval) (pS6 [6]; AML1 sample (Example 6)): 30 min
pS6 Amp (peak amplitude of fold stimulation) (pS6 [6]; AML2 sample (Example 6)): 620
pS6 RI (response interval) (pS6 [6]; AML2 sample (Example 6)): 30 min
Fold Stimulation, AML to NBM ratio (pS6)AML1/(pS6)D6-9 (pS6 [6]; SCF-stimulated): 110
Fold Stimulation, AML to NBM ratio (pS6)AML2/(pS6)D6-9 (pS6 [6]; SCF-stimulated): 62
Frequency, AML to NBM ratio (pS6)AML1/(pS6)D6-9 (pS6 [6]; SCF-stimulated): 3.7
Frequency, AML to NBM ratio (pS6)AML2/(pS6)D6-9 (pS6 [6]; SCF-stimulated): 3.7
MFI, AML to NBM ratio (pS6)AML1/(pS6)D6-9 (pS6 [6]; SCF-stimulated): 3.0
MFI, AML to NBM ratio (pS6)AML2/(pS6)D6-9 (pS6 [6]; SCF-stimulated): 2.3
Positives/Negatives, AML to NBM ratio (pS6)AML1/(pS6)D6-9 (pS6 [6]; SCF-stimulated): 80
Positives/Negatives, AML to NBM ratio (pS6)AML2/(pS6)D6-9 (pS6 [6]; SCF-stimulated): 52
Fold Stimulation, pS6 (pS6 [6]; SCF-stimulated, AML1): 1100
MFI, pS6 (pS6 [6]; SCF-stimulated, AML1): 3100
Frequency, pS6 (pS6 [6]; SCF-stimulated, AML1): 96
Positives/Negatives, pS6 (pS6 [6]; SCF-stimulated, AML1): 35
Fold Stimulation, pS6 (pS6 [6]; SCF-stimulated, AML2): 620
MFI, pS6 (pS6 [6]; SCF-stimulated, AML2): 2400
Frequency, pS6 (pS6 [6]; SCF-stimulated, AML2): 97
Positives/Negatives, pS6 (pS6 [6]; SCF-stimulated, AML2): 23
frequency of positively stained cells at its maximum, pS6 (pS6 [6]; SCF-stimulated, AML samples): ~97%

B1: FMS-Like Tyrosine Kinase 3 (FLT-3) ligand (protein, UniProt P49771 27-235, looked up)
Fms-related tyrosine kinase 3 …: TQDCSFQHSPISSDFAVKIRELSDYLLQDYPVTVASNLQDEELCGGLWRLVLAQRWMERLKTVAGSKMQGLLERVNTEIHFVTKCAFQPPPSCLRFVQTNISRLLQETSEQLVALKPWITRQNFSRCLELQCQPDSSTLPPPWSPRPLEATAPTAPQPPLLLLLLLPVGLLLLAAAWCLHWQRTRRRTPRPGEQVPPVPSPQDLLLVEH
pSTAT5 Amp (peak amplitude of fold stimulation) (pSTAT5 [1]): 0.8 ± 0.2
pSTAT5 RI (response interval) (pSTAT5 [1]): Variable
pERK Amp (peak amplitude of fold stimulation) (pERK [2]; healthy donor samples): 51 and 51 ± 11
pERK RI (response interval) (pERK [2]; healthy donor samples): 18 min and 18 ± 1.5 min
pS6 Amp (peak amplitude of fold stimulation) (pS6 [3]; healthy donor samples): 12 and 12 ± 1.4
pS6 RI (response interval) (pS6 [3]; healthy donor samples): 37 min and 37 ± 6.0 min
pSTAT5 Amp (peak amplitude of fold stimulation) (pSTAT5 [4]; AML1 sample (Example 6)): 2
pSTAT5 RI (response interval) (pSTAT5 [4]; AML1 sample (Example 6)): 2 min
pERK Amp (peak amplitude of fold stimulation) (pERK [5]; AML1 sample (Example 6)): 460
pERK RI (response interval) (pERK [5]; AML1 sample (Example 6)): 30 min
pERK response, fold greater than in healthy donor samples (pERK [5]): approximately 10 fold
pS6 Amp (peak amplitude of fold stimulation) (pS6 [6]; AML1 sample (Example 6)): 140
pS6 RI (response interval) (pS6 [6]; AML1 sample (Example 6)): 30 min
